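Interpolation was linear, between the two tested concentrations surrounding the appropriate level; five concentrations were tested over 48 hours in 96-well plates. At the TGI there is no net growth.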
How the values were obtained:
Test in all cases: NCI-60 cell line screen, 48 h
[1] = test system: MOLT-4 leukemia
[2] = test system: NCI-H460 lung
[3] = test system: SF-539 CNS
[4] = test system: UO-31 renal
[5] = test system: SK-OV-3 ovarian
[6] = test system: SW-620 colon
[7] = test system: CCRF-CEM leukemia
[8] = test system: MDA-N
[9] = test system: NCI-H522 lung
[10] = test system: CAKI-1 renal
[11] = test system: TK-10 renal
[12] = test system: OVCAR-8 ovarian
[13] = test system: A498 renal
[14] = test system: SF-295 CNS
[15] = test system: HOP-92 NSCLC
[16] = test system: K-562 leukemia
[17] = test system: SF-268 CNS
[18] = test system: NCI/ADR-RES ovarian
[19] = test system: NCI-H23 lung
[20] = test system: COLO 205 colon
[21] = test system: MALME-3M melanoma
[22] = test system: BT-549 breast
[23] = test system: HCC-2998 colon
[24] = test system: MDA-MB-231 breast
[25] = test system: SNB-19 CNS
[26] = test system: A549 NSCLC
[27] = test system: DU-145 prostate
[28] = test system: UACC-257 melanoma
[29] = test system: SN12C renal
[30] = test system: RPMI-8226 leukemia
[31] = test system: MCF7 breast
[32] = test system: OVCAR-5 ovarian
[33] = test system: SK-MEL-28 melanoma
[34] = test system: NCI-H226 lung
[35] = test system: ACHN renal
[36] = test system: MDA-MB-435
[37] = test system: SNB-75 CNS
[38] = test system: UACC-62 melanoma
[39] = test system: HCT-15 colon
[40] = test system: KM12 colon
[41] = test system: HL-60(TB) leukemia
[42] = test system: IGROV1 ovarian
[43] = test system: PC-3 prostate
[44] = test system: U251 CNS
[45] = test system: OVCAR-4 ovarian
[46] = test system: SR leukemia
[47] = test system: EKVX NSCLC
[48] = test system: M14 melanoma
[49] = test system: SK-MEL-5 melanoma
[50] = test system: HCT-116 colon
[51] = test system: OVCAR-3 ovarian
[52] = test system: LOX IMVI melanoma
[53] = test system: HOP-62 NSCLC
[54] = test system: SK-MEL-2 melanoma
[55] = test system: HS 578T breast
[56] = test system: HT29 colon
[57] = test system: T-47D breast
[58] = test system: 786-0 renal
[59] = test system: RXF 393 renal

Measured: TGI

O=C(O)COc1cc(-c2ccccc2)nc2cc(F)ccc12
not listed: [59]
> 100 µM: all other assays above

Cc1nc(N)c(N2CCN(CN)CC2)c(=O)[nH]1
not listed: [5] | [10] | [15] | [38] | [42] | [49] | [59]
> 100 µM: all other assays above

CN(Cc1cnc2nc(N)nc(N)c2n1)c1ccc(C(=O)NC(CO)CCCO)cc1 (stereo unspecified)
not listed: [9] | [15] | [23] | [26] | [45]
> 100 µM: all other assays above

N#Cc1cc2c(n(C3OC(CO)C(O)C(O)C3O)c1=S)CCCCCC2 (stereo unspecified)
not listed: [5] | [47]
> 100 µM: all other assays above
